Ends that are not written are not given here. * marks the point of attachment. FITC = O=C1OC2(c3ccc(O)cc3Oc3cc(O)ccc32)c2ccc(NC(=S)*)cc21
Tests used:
[1] = tested on: aortic atherosclerotic plaques; test: In vivo atherosclerotic targeting of selected phage clones (phage titer recovered from aorta); parameters: species or system mice; details: tested as phage clone; SEQ ID NO: 1 versus SEQ ID NO: 2
Procedure: (§1) C57BL/6 mice (Ldlr−/−) into which deficiency of a low-density lipoprotein (LDL) receptor was introduced by a genetic engineering technique were fed daily for 10 weeks with 3 g of high-cholesterol diet, thereby inducing atherosclerosis in animals.
Thereafter, aorta were removed from each mouse and aortic tissues were ground to collect cells. The cells were treated with 100 μl of DMEM containing 1% NP-40 at 4° C. for 10 min, and 900 μl of BL21 E. coli culture as a host was then added to recover cell-bound phages. The recover phages were subjected to titer determination by a conventional method known in the art.

[2] = tested on: IL-4-induced phosphorylation of AKT; test: IL-4-induced Thr308 and Ser473 phosphorylation of AKT in THP1 monocytes differentiated into macrophages (Western blot); type: cell-based
Procedure: (§2) THP1 monocytes were treated and activated with 100 ng/mL of phorbol myristate acetate (PMA) for 3 days to thereby induce differentiation into macrophages. The culture medium was replaced with a serum-free fresh medium, and the cells were cultured for 18 hours and treated with 0.67 nM of IL-4 alone for 10 min. Meanwhile, the peptide of the present invention alone or in conjunction with IL-4 was treated at concentrations of 0.67 nM (1×, one-fold concentration that of IL-4), 6.7 nM (10×, 10-fold concentration that of IL-4) and 67 nM (100×, 100-fold concentration that of IL-4) on cells which are under the same culture phase. After the reaction was complete, cells were disrupted according to a conventional method known in the art and cell lysates were subjected to electrophoresis and Western blot analysis using antibodies. As assay antibodies, STAT6 antibody and phospho-STAT6 (P-STAT6) antibody (Cell Signaling, USA), AKT antibody and phosphor-Thr308-AKT antibody or phosphor-Ser473 AKT antibody (Santa Cruz, USA) and β-actin antibody were used.

[3] = tested on: IL-4-induced phosphorylation of STAT6; test: IL-4-induced phosphorylation of STAT6 in THP1 monocytes differentiated into macrophages (Western blot); type: cell-based
Procedure: as §2

[4] = tested on: atherosclerotic plaque tissues; test: In vivo atherosclerotic targeting of fluorescent dye-conjugated peptide (fluorescence microscopy of frozen sections); details: atherosclerosis-induced mice; final blood concentration 50 μM via left ventricle, circulation 15 min
Description: as §1, with “animals. The high-cholesterol diet was a special animal feed containing 1.25% cholesterol, 15% fat and 0.5% cholate (Oriental Yeast Co., Japan).” for “animals.”
Here, the peptide was synthesized by tagging an N-terminus of the peptide with FITC (fluorescein isothiocyanate) as a green fluorescent dye. The synthesized FITC-CRKRLDRNC peptide and a control peptide (FITC-NSSVDK) at final blood concentrations of 50 μM were injected into the atherosclerosis-induced mice via the left ventricle of animals, followed by circulation for 15 min. Thereafter, the aortae were removed from each mouse, and frozen sections were prepared, followed by Oil Red O (fat marker, Sigma-Aldrich, USA) staining or vWF (vascular endothelial cell marker, 1:5000 dilution, Abcam, USA) and Mac-3 (macrophage marker, 1:50 dilution, BD, USA) staining (Matter et al., Circulation Research, 95:1225-1233, 2004). In order to stain nuclei in tissues, a mounting medium containing a nuclear staining dye, 4′,6-diamidino-2-phenylindole (DAPI) (manufactured by Molecular Probe, USA) was treated on a slide, according to a conventional method known in the art, followed by fluorescence microscopic examination.

[5] = target: T1, IL-4R (Homo sapiens, UniProt P24394); test: Bindability of peptide to HT-1376 cells with inhibited expression of IL-4R (siRNA); type: binding; parameters: HT-1376 cells that essentially show constitutive expression of IL-4R; endogenous in cells; host or cells: HT-1376; details: same conditions as in FIG. 6 (10 μM, room temperature, 1 hour)
T1 sequence (P24394 26-825): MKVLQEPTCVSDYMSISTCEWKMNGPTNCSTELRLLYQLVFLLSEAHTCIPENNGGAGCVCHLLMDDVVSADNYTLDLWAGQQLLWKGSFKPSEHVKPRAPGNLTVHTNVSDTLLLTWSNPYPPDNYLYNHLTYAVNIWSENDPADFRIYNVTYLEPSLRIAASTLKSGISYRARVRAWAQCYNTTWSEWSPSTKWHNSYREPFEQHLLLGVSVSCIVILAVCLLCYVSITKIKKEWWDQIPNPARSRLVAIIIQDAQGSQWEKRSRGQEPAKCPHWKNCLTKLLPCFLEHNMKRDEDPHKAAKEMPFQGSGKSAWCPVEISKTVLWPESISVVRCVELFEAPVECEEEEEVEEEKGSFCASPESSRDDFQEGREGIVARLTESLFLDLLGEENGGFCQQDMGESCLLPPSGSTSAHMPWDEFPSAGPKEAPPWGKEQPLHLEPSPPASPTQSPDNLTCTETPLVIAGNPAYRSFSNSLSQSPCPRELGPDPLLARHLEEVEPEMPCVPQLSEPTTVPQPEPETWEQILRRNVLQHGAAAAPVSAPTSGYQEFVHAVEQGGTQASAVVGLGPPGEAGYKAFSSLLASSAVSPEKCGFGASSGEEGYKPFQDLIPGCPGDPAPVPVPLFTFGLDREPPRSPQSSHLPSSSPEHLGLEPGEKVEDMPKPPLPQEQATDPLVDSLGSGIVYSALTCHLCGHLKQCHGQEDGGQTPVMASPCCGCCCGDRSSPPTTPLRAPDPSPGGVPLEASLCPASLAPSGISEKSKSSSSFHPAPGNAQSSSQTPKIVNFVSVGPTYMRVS
Procedure: Silencing RNA for IL-4R (Cat. #16708A, Ambion, USA) was introduced into HT-1376 cells that essentially show constitutive expression of IL-4R, according to a conventional method known in the art, and treated for 24 hours to thereby result in substantially no expression of IL-4R, followed by evaluation of peptide binding. More specifically, 10 nM of IL-4R silencing RNA synthesized by the manufacturer was mixed with a siPORT™ NeoFX™ lipid transfection agent (Ambion, USA), and the mixture was treated for 24 hours on HT-1376 cells grown in a 4-well chamber slide, such that IL-4R silencing RNA is incorporated into the cells. Thereafter, the culture medium was replaced with one containing 10% bovine serum and the cells were recovered for 24 hours. After staining of cells with IL-4R antibodies and nuclear DAPI staining under the same conditions as in FIG. 6, a cellular expression level of IL-4R was examined. After IL-4R staining, the FITC-CRKRLDRNC peptide was reacted with the cells under the same conditions as in FIG. 6, and a binding degree of the peptide was measured.

[6] = target: T1, IL-4R; test: Bindability of peptide to IL-4R-expressing CHO-K1 cells (fluorescence microscopy); type: binding; details: 10 μM peptide, room temperature, 1 hour
Description: In order to further confirm roles of IL-4R as the receptor for the peptide of the present invention, a plasmid capable of expressing IL-4R (Cat. #TC119877, Origene, USA) was introduced into IL-4R-deficient CHO-K1 cells according to a conventional method known in the art, followed by expression of IL-4R, and binding of IL-4R with the peptide of the present invention was examined.
The cells were stained with antibodies (1:200 dilution) directed against. IL-4R and cell nuclei were stained with DAPI, followed by fluorescence microscopic examination. As a result, a large amount of IL-4R (red fluorescence) was present on the cell surface (FIG. 6B). Next, CHO-K1 and CHO-K1/IL-4R cells were reacted with 10 μM of the FITC-C-RKRLDRNC peptide at room temperature for 1 hour.

[7] = tested on: atherosclerotic plaque tissues; test: In vivo atherosclerotic targeting of radioisotope-conjugated peptide (autoradiography of aortae); parameters: species or system mice; details: tail vein, circulation 15 min
Procedure: In order to evaluate in vivo targetability of an inventive peptide through a higher sensitivity method, the peptide was synthesized and then an N-terminus of the peptide was tagged with a radioisotope (^111In). The ^111In-tagged peptide of the present invention at a dose of 160 μCi was injected via the tail vein into the blood of atherosclerotic mice and normal mice, followed by circulation for 15 min. Thereafter, aortae were removed from each mouse and autoradiography with X-ray film exposure was carried out. As a control group, the ^123I-tagged peptide (^123I-CLEVSRKNC) was injected at a dose of 104 μCi.

[8] = peptide at 100-fold concentration

CRKRLDRNC (peptide 1, completely synthesized) [peptide of the present invention]
atherosclerotic targeting, comparison of the two selected phage clones [1]: more intense atherosclerotic targeting | antagonistic effect on Ser473 phosphorylation of AKT relative to Thr308 [2, 8]: greater antagonistic effects | level of Ser473 phosphorylation of AKT versus control group not treated with IL-4 [2, 8]: inhibited to a lower level than that of the control group | effect on IL-4-induced phosphorylation of AKT (Thr308 and Ser473) ([2]; peptide at 100-fold concentration (67 nM) with 0.67 nM IL-4): inhibited | effect on IL-4-induced phosphorylation of STAT6 ([3]; peptide at 100-fold concentration that of IL-4 (67 nM) with 0.67 nM IL-4): significant inhibitory effects | amount of total STAT6 proteins ([3]; peptide with IL-4): not affected

FITC-NSSVDK ({FITC}-NSSVDK) [FITC-labeled control peptide, reference compound]
peptide found in aortic atherosclerotic plaque tissues (green fluorescence) [4]: substantially no control peptide was found | binding to HT-1376 cells (constitutive expression of IL-4R) [5]: almost no binding | binding to CHO-K1/IL-4R cells (IL-4R-expressing) [6]: no binding

^123I-CLEVSRKNC (not fully specified (N-terminus); cysteine pairing not given here; also: 123I label, attachment not given here) [123I-tagged control peptide for autoradiography]
radioactivity resulting from aortic targeting of the peptide ([7]; aortae of atherosclerotic mice, 160 μCi (111In peptide) or 104 μCi (123I control)): substantially no detection of radioactivity | radioactivity resulting from aortic targeting of the peptide ([7]; aortae of normal mice, 104 μCi (123I control)): substantially no detection of radioactivity

B1: IL-4: cytokine used as stimulus of STAT6 and AKT phosphorylation (protein)
chain: HKCDITLQEIIKTLNSLTEQKTLCTELTVTDIFAASKNTTEKETFCRAATVLRQFYSHHEKDTRCLGATAQQFHRHKQLIRFLKRLDRNLWGLAGLNSCPVKEANQSTLENFLERLKTIMREKYSKCSS
Thr308 and Ser473 phosphorylation of AKT induced by IL-4 ([2]; 0.67 nM IL-4, 10 min): slightly increased | phosphorylation of STAT6 induced by IL-4 ([3]; 0.67 nM IL-4 alone, 10 min): significant increase

Source: US7968081B2, “Peptide for diagnosing, preventing and treating atherosclerosis and uses thereof” (Kyungpook National University Industry—Academic Cooperation …, priority 2007, dated 2011)
